Earlier results as cited in paper PMC8253220, “Molecular design, synthesis and in vitro biological evaluation of thienopyrimidine–hydroxamic acids as chimeric kinase HDAC inhibitors: a challenging approach to combat cancer” (Journal of Enzyme Inhibition and Medicinal Chemistry, 2021).
Where two headings read alike, the source gives them in different places.

Columns and labels:
HER2 = conditions: Figure 2; cited from earlier work
VEGFR2 = conditions: cited from earlier work
EGFR = EGFR (Homo sapiens, UniProt P00533); conditions: cited from earlier work
Chain of EGFR (P00533 25-1210): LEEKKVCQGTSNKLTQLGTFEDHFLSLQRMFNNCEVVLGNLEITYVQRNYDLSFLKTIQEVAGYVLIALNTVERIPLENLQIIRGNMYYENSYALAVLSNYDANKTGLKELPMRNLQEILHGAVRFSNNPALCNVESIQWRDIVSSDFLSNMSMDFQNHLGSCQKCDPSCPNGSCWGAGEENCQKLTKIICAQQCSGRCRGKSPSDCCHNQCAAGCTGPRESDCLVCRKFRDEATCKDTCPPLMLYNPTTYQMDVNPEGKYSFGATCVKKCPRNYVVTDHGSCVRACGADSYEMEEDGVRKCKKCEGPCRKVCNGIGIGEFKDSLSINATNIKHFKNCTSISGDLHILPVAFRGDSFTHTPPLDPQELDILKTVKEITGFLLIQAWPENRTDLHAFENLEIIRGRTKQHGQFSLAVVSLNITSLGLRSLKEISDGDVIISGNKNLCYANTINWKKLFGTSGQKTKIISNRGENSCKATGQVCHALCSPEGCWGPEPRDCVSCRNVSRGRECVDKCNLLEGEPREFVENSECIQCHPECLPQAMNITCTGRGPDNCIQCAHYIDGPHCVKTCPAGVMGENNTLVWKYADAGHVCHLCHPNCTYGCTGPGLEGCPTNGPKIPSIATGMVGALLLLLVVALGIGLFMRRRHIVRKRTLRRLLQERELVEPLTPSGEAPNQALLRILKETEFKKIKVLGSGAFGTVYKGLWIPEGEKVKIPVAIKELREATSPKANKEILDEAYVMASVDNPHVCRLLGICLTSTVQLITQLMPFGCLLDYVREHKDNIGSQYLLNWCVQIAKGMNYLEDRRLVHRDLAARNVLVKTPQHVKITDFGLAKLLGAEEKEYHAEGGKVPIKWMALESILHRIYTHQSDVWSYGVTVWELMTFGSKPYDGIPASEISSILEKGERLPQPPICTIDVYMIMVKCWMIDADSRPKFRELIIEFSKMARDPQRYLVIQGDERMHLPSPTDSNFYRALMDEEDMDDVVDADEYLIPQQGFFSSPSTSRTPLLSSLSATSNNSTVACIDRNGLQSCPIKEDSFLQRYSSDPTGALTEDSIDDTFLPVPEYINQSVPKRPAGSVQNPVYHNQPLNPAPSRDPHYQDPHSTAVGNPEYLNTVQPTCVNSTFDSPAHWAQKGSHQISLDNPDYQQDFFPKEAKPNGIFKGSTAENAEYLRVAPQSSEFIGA

HDAC = conditions: Figure 2; cited from earlier work
HDAC6 = molecular target: T1, HDAC6 (Homo sapiens, UniProt Q9UBN7); conditions: Figure 2; cited from earlier work
T1 construct: purchased BPS Bioscience 50006
T1 sequence (Q9UBN7 1-1215): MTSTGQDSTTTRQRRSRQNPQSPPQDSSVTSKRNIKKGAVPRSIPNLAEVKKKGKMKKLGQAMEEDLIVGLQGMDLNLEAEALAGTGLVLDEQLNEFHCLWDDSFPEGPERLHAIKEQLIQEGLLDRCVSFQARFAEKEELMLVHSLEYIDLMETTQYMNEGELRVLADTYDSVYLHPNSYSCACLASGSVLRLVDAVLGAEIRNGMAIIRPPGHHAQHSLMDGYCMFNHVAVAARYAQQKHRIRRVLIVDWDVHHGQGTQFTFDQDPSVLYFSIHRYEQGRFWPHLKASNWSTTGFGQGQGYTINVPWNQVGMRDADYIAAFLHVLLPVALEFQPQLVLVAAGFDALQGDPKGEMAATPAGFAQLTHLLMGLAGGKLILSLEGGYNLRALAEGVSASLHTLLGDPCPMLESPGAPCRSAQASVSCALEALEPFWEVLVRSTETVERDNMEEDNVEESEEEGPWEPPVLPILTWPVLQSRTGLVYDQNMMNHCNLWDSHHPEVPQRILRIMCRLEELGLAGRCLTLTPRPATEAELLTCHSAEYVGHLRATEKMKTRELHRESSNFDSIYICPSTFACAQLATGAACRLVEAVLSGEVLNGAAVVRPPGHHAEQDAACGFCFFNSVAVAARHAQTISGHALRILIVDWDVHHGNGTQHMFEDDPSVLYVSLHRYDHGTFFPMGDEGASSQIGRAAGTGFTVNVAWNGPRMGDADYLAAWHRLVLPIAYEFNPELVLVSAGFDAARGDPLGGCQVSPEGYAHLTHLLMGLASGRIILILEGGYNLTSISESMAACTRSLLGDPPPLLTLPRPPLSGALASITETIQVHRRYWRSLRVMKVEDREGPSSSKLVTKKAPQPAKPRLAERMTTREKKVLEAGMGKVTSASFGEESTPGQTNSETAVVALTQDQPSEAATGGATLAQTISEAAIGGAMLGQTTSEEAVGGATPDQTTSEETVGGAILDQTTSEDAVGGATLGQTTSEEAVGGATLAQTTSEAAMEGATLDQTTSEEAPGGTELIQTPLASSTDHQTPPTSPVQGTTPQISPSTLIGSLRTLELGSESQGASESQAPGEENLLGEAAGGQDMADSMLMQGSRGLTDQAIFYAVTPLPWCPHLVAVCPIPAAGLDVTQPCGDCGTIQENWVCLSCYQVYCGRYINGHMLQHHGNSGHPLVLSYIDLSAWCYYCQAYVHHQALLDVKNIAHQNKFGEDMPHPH

C#Cc1cccc(Nc2ncnc3cc(OC)c(OCCCCCCC(=O)NO)cc23)c1 [CUDC-101, 7-(4-(3-ethynylphenylamino)-7-methoxyquinazolin-6-yloxy)-N-hydroxyheptanamide]
IC50 (HER2): 15 nM

O=C(Nc1cccc(Br)c1)Nc1ccc(Oc2ncnc3sc4c(c23)CCCCC4)cc1Cl [Compound E]
IC50 (VEGFR2; Figure 3, read-out: VEGFR2 IC50): 15 nM
IC50 (EGFR; Figure 3): 1260 nM

O=C(CCCCCCn1cc(-c2ccc3ncnc(Nc4ccc(Br)cc4F)c3c2)nn1)NO [compound C]
IC50 (HDAC): 3.2 nM
IC50 (HDAC6): 6 nM
IC50 (EGFR; Figure 2): 4.4 nM

COc1cc2ncnc(Nc3ccc(Br)cc3)c2cc1OCCCCCCC(=O)NO [compound B]
IC50 (HDAC): 2.2 nM
IC50 (VEGFR2; Figure 2, read-out: VEGFR2 IC50): 74 nM

Vandetanib
IC50 (VEGFR2; read-out: IC50 VEGFR-2): 40 nM
